# Data taken from article PMC10838953.
# Assays:
# Experiment in all cases: biochemical
# Conditions in all cases: read-out: %Ctrl @ 2000nM
# FLT3-autoinhibited = FLT3-autoinhibited (Homo sapiens, UniProt P36888)
# AKT1 = AKT1 (Homo sapiens, UniProt P31749)
# [1] = target: ABL1(F317I)-nonphosphorylated (Homo sapiens, UniProt P00519, F317I)
# CDC2L5 = CDC2L5 (Homo sapiens, UniProt Q14004)
# CSNK1G2 = CSNK1G2 (Homo sapiens, UniProt P78368)
# GRK7 = GRK7 (Homo sapiens, UniProt Q8WTQ7)
# HIPK3 = HIPK3 (Homo sapiens, UniProt Q9H422)
# ACVR2B = ACVR2B (Homo sapiens, UniProt Q13705)
# EPHA4 = EPHA4 (Homo sapiens, UniProt P54764)
# PRKCQ = PRKCQ (Homo sapiens, UniProt Q04759)
# WNK2 = WNK2 (Homo sapiens, UniProt Q9Y3S1)
# KIT(L576P) = KIT(L576P) (Homo sapiens, UniProt P10721, L576P)
# KIT(V559D,V654A) = KIT(V559D,V654A) (Homo sapiens, UniProt P10721, V559D/V654A)
# PRKR = PRKR (Homo sapiens, UniProt P19525)
# FGFR4 = FGFR4 (Homo sapiens, UniProt P22455)
# MET(M1250T) = MET(M1250T) (Homo sapiens, UniProt P08581, M1250T)
# FLT3(K663Q) = FLT3(K663Q) (Homo sapiens, UniProt P36888, K663Q)
# EIF2AK1 = EIF2AK1 (Homo sapiens, UniProt Q9BQI3)
# NDR2 = NDR2 (Homo sapiens, UniProt Q9Y2H1)
# KIT = KIT (Homo sapiens, UniProt P10721)
# HPK1 = HPK1 (Homo sapiens, UniProt Q92918)
# MAST1 = MAST1 (Homo sapiens, UniProt Q9Y2H9)
# MST2 = MST2 (Homo sapiens, UniProt Q13188)
# EGFR = EGFR (Homo sapiens, UniProt P00533)
# AKT2 = AKT2 (Homo sapiens, UniProt P31751)
# EPHA8 = EPHA8 (Homo sapiens, UniProt P29322)
# PRKCI = PRKCI (Homo sapiens, UniProt P41743)
# CDC2L2 = CDC2L2 (Homo sapiens, UniProt Q9UQ88)
# LATS2 = LATS2 (Homo sapiens, UniProt Q9NRM7)
# [2] = target: ABL1(Y253F)-phosphorylated (Homo sapiens, UniProt P00519, Y253F)
# p38-gamma = p38-gamma (Homo sapiens, UniProt P53778)
# SgK110 = SgK110 (Homo sapiens, UniProt P0C264)
# MAP3K2 = MAP3K2 (Homo sapiens, UniProt Q9Y2U5)
# YSK1 = YSK1 (Homo sapiens, UniProt O00506)
# [3] = target: RSK2(Kin.Dom.2-C-terminal) (Homo sapiens, UniProt P51812)
# ZAK = ZAK (Homo sapiens, UniProt Q9NYL2)
# JNK1 = JNK1 (Homo sapiens, UniProt P45983)
# CAMKK1 = CAMKK1 (Homo sapiens, UniProt Q8N5S9)
# SBK1 = SBK1 (Homo sapiens, UniProt Q52WX2)
# FLT3 = FLT3 (Homo sapiens, UniProt P36888)
# ACVRL1 = ACVRL1 (Homo sapiens, UniProt P37023)
# DRAK1 = DRAK1 (Homo sapiens, UniProt Q9UEE5)
# Sequence of CAMKK1 (Q8N5S9 whole entry): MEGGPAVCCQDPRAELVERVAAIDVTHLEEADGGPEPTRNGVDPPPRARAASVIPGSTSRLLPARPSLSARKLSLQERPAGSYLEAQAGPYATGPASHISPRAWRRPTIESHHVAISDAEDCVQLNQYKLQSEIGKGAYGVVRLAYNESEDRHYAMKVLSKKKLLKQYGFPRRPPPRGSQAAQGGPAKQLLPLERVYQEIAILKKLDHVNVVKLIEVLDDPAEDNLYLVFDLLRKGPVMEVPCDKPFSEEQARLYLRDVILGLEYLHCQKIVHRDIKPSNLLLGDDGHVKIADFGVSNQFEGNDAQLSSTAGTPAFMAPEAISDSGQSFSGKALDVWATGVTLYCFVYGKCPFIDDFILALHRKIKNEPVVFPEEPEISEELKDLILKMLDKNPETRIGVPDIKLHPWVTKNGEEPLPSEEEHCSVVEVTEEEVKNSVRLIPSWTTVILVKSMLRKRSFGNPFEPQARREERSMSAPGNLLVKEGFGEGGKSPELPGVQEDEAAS
# Sequence of EGFR (P00533 25-1210): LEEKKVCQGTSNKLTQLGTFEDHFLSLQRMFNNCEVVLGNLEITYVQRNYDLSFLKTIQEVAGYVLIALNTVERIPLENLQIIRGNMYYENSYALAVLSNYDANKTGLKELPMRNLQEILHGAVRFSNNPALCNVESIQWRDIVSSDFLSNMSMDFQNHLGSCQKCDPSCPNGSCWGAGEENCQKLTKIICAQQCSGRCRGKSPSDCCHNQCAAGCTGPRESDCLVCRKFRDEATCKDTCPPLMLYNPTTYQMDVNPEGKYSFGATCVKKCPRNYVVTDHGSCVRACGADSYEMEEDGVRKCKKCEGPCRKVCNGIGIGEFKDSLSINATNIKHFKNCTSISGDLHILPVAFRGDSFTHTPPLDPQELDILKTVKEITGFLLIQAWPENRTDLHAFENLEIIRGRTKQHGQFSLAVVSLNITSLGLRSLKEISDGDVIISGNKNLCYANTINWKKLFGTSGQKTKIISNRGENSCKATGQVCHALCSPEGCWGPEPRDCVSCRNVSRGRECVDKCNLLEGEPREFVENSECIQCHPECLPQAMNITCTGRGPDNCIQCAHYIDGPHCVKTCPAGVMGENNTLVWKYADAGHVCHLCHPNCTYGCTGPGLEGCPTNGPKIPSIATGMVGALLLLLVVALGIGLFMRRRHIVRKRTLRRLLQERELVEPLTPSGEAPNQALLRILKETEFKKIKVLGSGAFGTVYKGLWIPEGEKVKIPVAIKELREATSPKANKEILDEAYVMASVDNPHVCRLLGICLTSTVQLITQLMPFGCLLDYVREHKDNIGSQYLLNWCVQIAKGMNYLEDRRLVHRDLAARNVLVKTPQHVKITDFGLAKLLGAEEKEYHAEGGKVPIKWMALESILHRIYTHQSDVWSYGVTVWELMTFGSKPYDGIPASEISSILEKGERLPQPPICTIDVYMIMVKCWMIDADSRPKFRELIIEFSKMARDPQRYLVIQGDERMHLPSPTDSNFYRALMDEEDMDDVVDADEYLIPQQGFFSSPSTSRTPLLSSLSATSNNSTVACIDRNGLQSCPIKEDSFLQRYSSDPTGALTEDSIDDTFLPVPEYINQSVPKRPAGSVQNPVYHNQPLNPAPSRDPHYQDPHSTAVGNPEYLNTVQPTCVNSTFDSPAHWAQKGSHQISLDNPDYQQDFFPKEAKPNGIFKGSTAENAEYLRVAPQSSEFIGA
# Sequence of AKT1 (P31749 whole entry): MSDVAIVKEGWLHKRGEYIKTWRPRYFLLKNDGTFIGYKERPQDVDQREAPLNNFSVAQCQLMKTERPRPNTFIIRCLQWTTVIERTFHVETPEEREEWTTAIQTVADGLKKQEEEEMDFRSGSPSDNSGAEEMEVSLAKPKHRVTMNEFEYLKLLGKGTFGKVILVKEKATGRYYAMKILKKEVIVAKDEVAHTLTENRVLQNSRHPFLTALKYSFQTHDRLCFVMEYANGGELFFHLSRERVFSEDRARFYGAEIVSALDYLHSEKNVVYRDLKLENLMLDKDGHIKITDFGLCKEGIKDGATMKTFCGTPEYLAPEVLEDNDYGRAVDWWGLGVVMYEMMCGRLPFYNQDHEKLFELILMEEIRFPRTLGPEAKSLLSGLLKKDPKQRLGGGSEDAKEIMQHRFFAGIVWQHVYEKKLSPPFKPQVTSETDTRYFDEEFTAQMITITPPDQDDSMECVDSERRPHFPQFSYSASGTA
# Sequence of AKT2 (P31751 whole entry): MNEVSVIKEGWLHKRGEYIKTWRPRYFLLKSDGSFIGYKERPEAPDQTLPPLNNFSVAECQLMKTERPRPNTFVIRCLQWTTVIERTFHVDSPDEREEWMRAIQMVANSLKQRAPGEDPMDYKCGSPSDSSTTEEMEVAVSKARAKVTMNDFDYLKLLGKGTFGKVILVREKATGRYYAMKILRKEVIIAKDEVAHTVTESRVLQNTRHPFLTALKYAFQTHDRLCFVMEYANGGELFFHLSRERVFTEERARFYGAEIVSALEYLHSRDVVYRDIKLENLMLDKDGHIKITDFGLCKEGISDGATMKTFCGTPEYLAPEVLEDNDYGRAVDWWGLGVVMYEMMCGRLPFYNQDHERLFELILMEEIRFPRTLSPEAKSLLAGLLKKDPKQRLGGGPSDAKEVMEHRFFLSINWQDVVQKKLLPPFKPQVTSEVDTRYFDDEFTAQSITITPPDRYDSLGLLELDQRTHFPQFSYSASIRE
# Sequence of MAP3K2 (Q9Y2U5 whole entry): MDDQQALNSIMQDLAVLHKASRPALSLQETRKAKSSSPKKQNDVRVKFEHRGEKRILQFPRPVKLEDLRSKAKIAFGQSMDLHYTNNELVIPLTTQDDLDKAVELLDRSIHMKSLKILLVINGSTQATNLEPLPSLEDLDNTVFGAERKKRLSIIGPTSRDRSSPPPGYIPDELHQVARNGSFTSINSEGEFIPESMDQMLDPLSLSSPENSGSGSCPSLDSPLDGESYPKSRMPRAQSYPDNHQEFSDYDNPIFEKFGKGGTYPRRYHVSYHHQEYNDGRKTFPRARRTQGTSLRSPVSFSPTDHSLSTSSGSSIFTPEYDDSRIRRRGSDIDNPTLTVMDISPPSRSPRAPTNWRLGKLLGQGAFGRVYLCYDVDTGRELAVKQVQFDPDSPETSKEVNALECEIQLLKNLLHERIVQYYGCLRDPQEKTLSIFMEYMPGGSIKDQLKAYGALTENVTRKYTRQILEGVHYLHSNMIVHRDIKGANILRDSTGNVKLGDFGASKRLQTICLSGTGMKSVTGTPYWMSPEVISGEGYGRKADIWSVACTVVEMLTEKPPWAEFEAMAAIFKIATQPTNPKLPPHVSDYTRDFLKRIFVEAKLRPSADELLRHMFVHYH
# Sequence of FGFR4 (P22455 22-802): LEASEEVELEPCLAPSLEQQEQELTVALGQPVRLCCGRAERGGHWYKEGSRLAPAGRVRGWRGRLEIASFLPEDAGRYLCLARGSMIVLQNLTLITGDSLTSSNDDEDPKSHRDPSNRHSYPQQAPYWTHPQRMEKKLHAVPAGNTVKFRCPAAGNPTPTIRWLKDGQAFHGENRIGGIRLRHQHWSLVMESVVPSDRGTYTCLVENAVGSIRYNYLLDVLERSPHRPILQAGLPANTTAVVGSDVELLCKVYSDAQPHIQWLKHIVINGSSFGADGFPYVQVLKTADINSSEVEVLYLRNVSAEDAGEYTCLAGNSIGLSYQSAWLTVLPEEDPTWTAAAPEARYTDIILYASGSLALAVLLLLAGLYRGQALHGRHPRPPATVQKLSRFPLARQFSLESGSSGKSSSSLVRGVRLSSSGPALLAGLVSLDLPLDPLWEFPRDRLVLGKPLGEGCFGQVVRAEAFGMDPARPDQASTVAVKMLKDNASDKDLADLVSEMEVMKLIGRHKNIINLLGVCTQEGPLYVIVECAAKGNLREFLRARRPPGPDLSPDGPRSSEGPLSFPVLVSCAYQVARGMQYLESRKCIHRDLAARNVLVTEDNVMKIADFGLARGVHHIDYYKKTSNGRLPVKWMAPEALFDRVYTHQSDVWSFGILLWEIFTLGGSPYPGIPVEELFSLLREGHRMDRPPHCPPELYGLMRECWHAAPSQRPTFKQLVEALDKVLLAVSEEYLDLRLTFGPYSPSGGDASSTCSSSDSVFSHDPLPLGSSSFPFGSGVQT
# Sequence of KIT(L576P) (P10721 26-976 L576P): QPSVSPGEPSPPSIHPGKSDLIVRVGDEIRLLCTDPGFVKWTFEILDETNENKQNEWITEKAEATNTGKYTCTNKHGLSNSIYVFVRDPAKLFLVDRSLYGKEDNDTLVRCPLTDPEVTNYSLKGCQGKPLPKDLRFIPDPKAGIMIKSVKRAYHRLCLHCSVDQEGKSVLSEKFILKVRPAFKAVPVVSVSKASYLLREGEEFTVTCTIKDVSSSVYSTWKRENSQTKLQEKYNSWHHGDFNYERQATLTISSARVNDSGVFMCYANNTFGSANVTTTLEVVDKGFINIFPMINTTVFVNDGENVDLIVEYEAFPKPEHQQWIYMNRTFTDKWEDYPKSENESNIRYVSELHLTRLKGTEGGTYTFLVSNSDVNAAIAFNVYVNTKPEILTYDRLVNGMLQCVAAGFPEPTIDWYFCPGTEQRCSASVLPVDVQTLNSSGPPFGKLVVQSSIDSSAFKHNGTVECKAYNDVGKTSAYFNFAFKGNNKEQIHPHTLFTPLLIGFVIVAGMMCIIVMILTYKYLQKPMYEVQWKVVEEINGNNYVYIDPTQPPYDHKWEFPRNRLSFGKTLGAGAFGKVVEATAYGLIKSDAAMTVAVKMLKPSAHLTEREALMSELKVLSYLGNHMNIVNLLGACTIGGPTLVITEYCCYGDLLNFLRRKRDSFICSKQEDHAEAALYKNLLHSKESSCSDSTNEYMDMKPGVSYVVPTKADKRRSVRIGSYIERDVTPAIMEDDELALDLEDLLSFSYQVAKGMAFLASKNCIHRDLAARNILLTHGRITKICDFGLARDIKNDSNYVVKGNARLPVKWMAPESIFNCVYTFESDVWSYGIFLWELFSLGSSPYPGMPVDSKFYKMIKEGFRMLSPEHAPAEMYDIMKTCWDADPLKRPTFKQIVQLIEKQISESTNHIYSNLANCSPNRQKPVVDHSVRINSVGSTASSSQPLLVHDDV
# Sequence of KIT (P10721 26-976): as the sequence (P10721 26-976 L576P) above, with P551L counted along it
smiles,measurement,setting,value
"CC(C)COC(=O)c1[nH]c2ccc(F)cc2c1-c1cn(CC2CCN(CCNS(=O)(=O)c3ccc(CC(C)C)cc3)CC2)nn1 [AB668, isobutyl 5-fluoro-3-(1-((1-(2-((4-isobutylphenyl)sulfonamido)ethyl)piperidin-4-yl)methyl)-1H-1,2,3-triazol-4-yl)-1H-indole-2-carboxylate]",remaining activity at 2 µM,FLT3-autoinhibited,100%
same,remaining activity at 2 µM,AKT1,88%
same,remaining activity at 2 µM,[1],79%
same,remaining activity at 2 µM,CDC2L5,98%
same,remaining activity at 2 µM,CSNK1G2,75%
same,remaining activity at 2 µM,GRK7,97%
same,remaining activity at 2 µM,HIPK3,98%
same,remaining activity at 2 µM,ACVR2B,92%
same,remaining activity at 2 µM,EPHA4,78%
same,remaining activity at 2 µM,PRKCQ,87%
same,remaining activity at 2 µM,WNK2,87%
same,remaining activity at 2 µM,KIT(L576P),91%
same,remaining activity at 2 µM,"KIT(V559D,V654A)",100%
same,remaining activity at 2 µM,PRKR,75%
same,remaining activity at 2 µM,FGFR4,82%
same,remaining activity at 2 µM,MET(M1250T),90%
same,remaining activity at 2 µM,FLT3(K663Q),96%
same,remaining activity at 2 µM,EIF2AK1,88%
same,remaining activity at 2 µM,NDR2,100%
same,remaining activity at 2 µM,KIT,95%
same,remaining activity at 2 µM,HPK1,92%
same,remaining activity at 2 µM,MAST1,100%
same,remaining activity at 2 µM,MST2,97%
same,remaining activity at 2 µM,EGFR,92%
same,remaining activity at 2 µM,AKT2,97%
same,remaining activity at 2 µM,EPHA8,92%
same,remaining activity at 2 µM,PRKCI,85%
same,remaining activity at 2 µM,CDC2L2,94%
same,remaining activity at 2 µM,LATS2,89%
same,remaining activity at 2 µM,[2],95%
same,remaining activity at 2 µM,p38-gamma,74%
same,remaining activity at 2 µM,SgK110,71%
same,remaining activity at 2 µM,MAP3K2,93%
same,remaining activity at 2 µM,YSK1,82%
same,remaining activity at 2 µM,[3],81%
same,remaining activity at 2 µM,ZAK,100%
same,remaining activity at 2 µM,JNK1,77%
same,remaining activity at 2 µM,CAMKK1,88%
same,remaining activity at 2 µM,SBK1,88%
same,remaining activity at 2 µM,FLT3,87%
same,remaining activity at 2 µM,ACVRL1,90%
same,remaining activity at 2 µM,DRAK1,100%
